Tests used:
[1] = dihydrate from slurry of the compound in water, disclosed in WO 2007/007041; cited from earlier work
[2] = relative stability of the crystalline forms of the compound; format: physicochemical; details: crystalline form prepared from isopropyl alcohol (IPA)

SMILES | stability of crystalline form in the presence of water [1] | stability of crystalline form relative to the other forms [2]
COC[C@H](C)Oc1cc(Oc2cnc(C(=O)N3CCC3)cn2)cc(C(=O)Nc2cnc(C)cn2)c1 [Form 3, 3-{[5-(azetidin-1-ylcarbonyl)pyrazin-2-yl]oxy}-5-{[(1S)-1-methyl-2-(methyloxy)ethyl]oxy}-N-(5-methylpyrazin-2-yl)benzamide] | most stable | 
COC[C@H](C)Oc1cc(Oc2cnc(C(=O)N3CCC3)cn2)cc(C(=O)Nc2cnc(C)cn2)c1 [Form 6, 3-{[5-(azetidin-1-ylcarbonyl)pyrazin-2-yl]oxy}-5-{[(1S)-1-methyl-2-(methyloxy)ethyl]oxy}-N-(5-methylpyrazin-2-yl)benzamide] |  | more stable

— US8093252B2, “Crystalline polymorphic form of glucokinase activator” (AstraZeneca AB, priority 2009, dated 2012)
